Test results from patent publication US20210395210A1, “INHIBITION OF BACTERIAL CHAPERONIN SYSTEMS” (THE TRUSTEES OF INDIANA UNIVERSITY, priority 2018, published 2021).
Read-outs that look alike come from different tables or passages of the source.

Tests used:
[1] = tested on: Enterobacter cloacae (ATCC 13047); test: Bacterial proliferation assay, E. cloacae; format: cell-based
Source text: (§1) Bacterial Strains: Enterococcus faecium—(Orla-Jensen) Schleifer and Kilpper-Balz strain NCTC 7171 (ATCC 19434); Drug sensitive Staphylococcus aureus—Rosenbranch strain Seattle 1945 (ATCC 25923); Methicillin resistant S. aureus (MRSA)—Rosenbach strain HPV107 (ATCC BAA-44); Klebsiella Pneumonia—(Schroeter) Trevisan strain NCTC 9633 (ATCC 13883); Acinetobacter baumannii—Bouvet and Grimont strain 2208 (ATCC 19606); Pseudomonas aeruginosa—(Schroeter) Migula strain NCTC 10332 (ATCC 10145); Enterobacter cloacae—E. cloacae, subsp. cloacae (Jordan) Hormaeche and Edwards strain CDC 442-68 (ATCC 13047).
(§2) Growth Media: All bacteria were grown in Brain Heart Infusion (BHI) broth/agar (Becton, Dickinson and Company). All liquid cultures were grown in BHI media supplemented with 25 mg/L Ca^2+ and 12.5 mg/L Mg^2+ to mimic free physiological concentrations of these cations. A 10 mg/mL Ca^2+ stock solution was prepared by dissolving 3.68 g of CaCl2.2H2O in 100 mL of deionized water, and a 10 mg/mL Mg^2+ stock solution was prepared by dissolving 8.36 g of MgCl2.6H2O in 100 mL deionized water. Both stock solutions were filter-sterilized using 0.2 μm pore size cellulose-acetate filters. 2.5 mL of the sterile 10 mg/mL Ca^2+ stock and 1.25 mL of the sterile 10 mg/mL Mg^2+ stock solutions were added per 1 L of autoclaved BHI medium to obtain 25 mg/L Ca^2+ and 12.5 mg/L Mg^2+ ions, respectively.
(§3) General Assay Protocol: Stock bacterial cultures were streaked onto BHI agar plates and grown overnight at 37° C. Fresh aliquots of broth were inoculated with single bacterial colonies and the cultures were grown overnight at 37° C. with shaking (240 rpm) in cation adjusted BHI media. The following morning, the overnight cultures were sub-cultured (1:5 dilution) into fresh aliquots of cation adjusted BHI media and grown at 37° C. for 1-2 hours with shaking. After 2 h, cultures were diluted into fresh media to achieve final OD600 readings of 0.017. Aliquots of these diluted cultures (30 μL) were added to clear, flat-bottom, 384-well polystyrene plates that were stamped with 0.5 μL of test compounds in 20 μL media. […] Plates were sealed with “Breathe Easy” oxygen permeable membranes (Diversified Biotech) and left to incubate at 37° C. without shaking (stagnant assay). OD600 nm readings were taken at either 6-8 h (S. aureus, MRSA, K. pneumonia, E. cloacae, and P. aeruginosa) or 24 h (E. faecium and A. baumannii). A second set of baseline control plates were prepared analogously, but without any bacteria added, to correct for possible compound absorbance and/or precipitation. Plates were then read at 600 nm using a Molecular Devices SpectraMax Plus384 microplate reader. […] Results presented represent the averages of EC50 values obtained from at quadriplicate (duplicate of duplicate) replicates.

[2] = tested on: Methicillin resistant S. aureus (MRSA) (ATCC BAA-44); test: Bacterial proliferation assay, MRSA; format: cell-based, Staphylococcus aureus
Source text: as §1, §2, §3

[3] = tested on: Drug sensitive Staphylococcus aureus (ATCC 25923); test: Bacterial proliferation assay, drug sensitive S. aureus; format: cell-based
Source text: as §1, §2, §3

native MDH = target: T1, native MDH (Sus scrofa, UniProt P00346); test: Counter-screen for inhibition of native MDH enzymatic activity; format: biochemical, pig; settings: for inhibition of native MDH enzymatic activity (in words): false-positive counter-screen
T1 construct: soluble pig heart MDH from Roche, product #10127248001; purchased Roche 10127248001; host or cells: pig heart
T1 sequence (P00346 25-338): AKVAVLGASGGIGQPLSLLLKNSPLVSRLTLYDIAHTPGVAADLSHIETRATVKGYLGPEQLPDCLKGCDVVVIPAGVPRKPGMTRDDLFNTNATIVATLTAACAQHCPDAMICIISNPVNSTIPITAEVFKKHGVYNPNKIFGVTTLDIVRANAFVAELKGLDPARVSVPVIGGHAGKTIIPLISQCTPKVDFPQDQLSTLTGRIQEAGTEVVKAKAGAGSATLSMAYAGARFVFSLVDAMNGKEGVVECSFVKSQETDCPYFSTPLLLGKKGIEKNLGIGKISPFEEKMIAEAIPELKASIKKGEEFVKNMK
Method: Reagent Preparations & Assay Protocol: This assay was performed as described above for the GroEL/ES-dMDH refolding assay; however, the assay protocol differed in the sequence of compound addition to the assay plates. The refolding reactions were allowed to proceed for 45 min at 37° C. in the absence of test compounds (complete refolding of MDH occurs), then quenched with the EDTA stock. Compounds were then pin-transferred into the plates after the EDTA quenching step; thus, compounds effects are only possible by inhibiting the fully-refolded MDH reporter substrate. […] A340 nm measurements were recorded at 0.5 minutes (start point) and at successive time points until the amount of NADH consumed reached ˜90% (end point, generally between 20-35 minutes). Compounds were tested in 8-point, 3-fold dilution series (62.5 μM to 29 nM during the reporter reaction) in clear, flat-bottom 384-well microtiter plates. DMSO was used as a negative control, and previously discovered native MDH inhibitors were used as positive controls. […] Results presented represent the averages of IC50 values obtained from at least quadriplicate (duplicate of duplicate) replicates.

[4] = ATCC13047, OD600 at 6-8 h, read-out: Bacterial Proliferation EC50 E. cloacae
[5] = ATCC13047, log of EC50 (μM scale), with standard deviation, read-out: log(EC50) Bacterial Proliferation Assay E. cloacae (converted)
[6] = Staphylococcus aureus, MRSA, log of EC50 (μM scale), with standard deviation, read-out: log(EC50) Bacterial Proliferation Assay S. aureus Resistant (converted)
[7] = ATCC25923, OD600 at 6-8 h, read-out: Bacterial Proliferation EC50 S. aureus Sensitive
[8] = ATCC25923, log of EC50 (μM scale), with standard deviation, read-out: log(EC50) Bacterial Proliferation Assay S. aureus Sensitive (converted)
[9] = log of IC50 (μM scale), with standard deviation, read-out: log(IC50) Native MDH Reporter (converted)
[10] = read-out: Biochemical Assay IC50 Native MDH Reporter
[11] = ATCC13047, read-out: Bacterial Proliferation EC50 E. cloacae
[12] = ATCC13047, read-out: log(EC50) Bacterial Proliferation Assay E. cloacae (converted)
[13] = Staphylococcus aureus, read-out: log(EC50) Bacterial Proliferation Assay S. aureus Resistant (converted)
[14] = ATCC25923, read-out: Bacterial Proliferation EC50 S. aureus Sensitive
[15] = ATCC25923, read-out: log(EC50) Bacterial Proliferation Assay S. aureus Sensitive (converted)
[16] = log of IC50 (μM scale), with standard deviation
[17] = Staphylococcus aureus, MRSA, OD600 at 6-8 h, read-out: Bacterial Proliferation EC50 S. aureus Resistant
[18] = Staphylococcus aureus, read-out: Bacterial Proliferation EC50 S. aureus Resistant
[19] = ATCC25923, read-out: S. aureus Proliferation & Biofilm Assay EC50 Planktonic Growth

SMILES	EC50 [1, 4] [µM]	EC50 [1, 5] [µM]	EC50 [2, 6] [µM]	EC50 [3, 7] [µM]	EC50 [3, 8] [µM]	IC50 (native MDH; [9]) [µM]	IC50 (native MDH; [10]) [µM]	EC50 [1, 11] [µM]	EC50 [1, 12] [µM]	EC50 ([2]; MRSA, OD600 at 6-8 h, read-out: Bacterial Proliferation EC50 S. aureus Resistant) [µM]	EC50 [2, 13] [µM]	EC50 [3, 14] [µM]	EC50 [3, 15] [µM]	log(IC50) Native MDH Reporter (native MDH; [16])	EC50 [2, 17] [µM]	EC50 [2, 18] [µM]	inhibition of native MDH enzymatic activity (in words) (native MDH)	EC50 [3, 19] [µM]
COc1c(Br)cc(Br)cc1C(=O)Nc1ccccc1 [Compound 41, 3,5-Dibromo-2-methoxy-N-phenylbenzamide]	> 100	> 100	> 100	> 100	> 100	> 63.1	> 63											
O=C(Nc1ccc(Oc2ccc(Cl)cc2)c(Cl)c1)c1cc(I)cc(I)c1O [Rafoxanide, rafoxanide, reference compound]								40	40.7	0.34	0.347	0.32	0.324	1.40 ± 0.34				
COc1ccccc1C(=O)Nc1ccc(Sc2nc3ccccc3s2)cc1 [Compound 36, N-(4-(Benzo[d]thiazol-2-ylthio)phenyl)-2-methoxybenzamide]	> 100	> 100	> 100	> 100	> 100	> 63.1	> 63											
O=C(Nc1cccc(Cl)c1)c1cc(Br)cc(Br)c1 [Compound 23, 3,5-Dibromo-N-(3-chlorophenyl)benzamide]	> 100	> 100	11.7	14	13.8	> 63.1	> 63								12			
O=C(Nc1ccccc1)c1cccc(Br)c1 [Compound 27, 3-Bromo-N-phenylbenzamide]	> 100	> 100	> 100	> 100	> 100	> 63.1	> 63											
COc1ccc(Br)cc1C(=O)Nc1ccc(Sc2nc3ccccc3s2)cc1 [Compound 35, N-(4-(Benzo[d]thiazol-2-ylthio)phenyl)-5-bromo-2-methoxybenzamide]	> 100	> 100	> 100	> 100	> 100	> 63.1	> 63											
CO[C@H]1/C=C/O[C@@]2(C)Oc3c(C)c(O)c4c(O)c(c(/C=N/N5CCN(C)CC5)c(O)c4c3C2=O)NC(=O)/C(C)=C\C=C\[C@H](C)[C@H](O)[C@@H](C)[C@@H](O)[C@@H](C)[C@H](OC(C)=O)[C@@H]1C [Rifampicin, rifampicin, reference compound]	8.8	8.71	0.229	< 0.05	< 0.0501	> 63.1									0.23			
O=C(Nc1ccc(Sc2nc3ccccc3s2)c(Cl)c1)c1cc(Br)ccc1O [Compound 3, N-(4-(Benzo[d]thiazol-2-ylthio)-3-chlorophenyl)-5-bromo-2-hydroxybenzamide]						> 63.1	> 63	> 100	> 100		0.17	0.12	0.117			0.17	inactive against the reporter enzymes	
COc1ccccc1C(=O)Nc1cccc(Cl)c1 [Compound 40, N-(3-Chlorophenyl)-2-methoxybenzamide]	> 100	> 100	> 100	> 100	> 100	> 63.1	> 63											
O=C(Nc1ccccc1)c1cccc(Br)c1O [Compound 14, 3-Bromo-2-hydroxy-N-phenylbenzamide]	> 100	> 100	10 ± 1.7	6.4	6.46	> 63.1	> 63								10			
O=C(Nc1ccc(Sc2nc3ccccc3s2)c(Cl)c1)c1cccc(Br)c1O [Compound 2, N-(4-(Benzo[d]thiazol-2-ylthio)-3-chlorophenyl)-3-bromo-2-hydroxybenzamide]						> 63.1	> 63	> 100	> 100		0.708	0.45	0.457			0.71	inactive against the reporter enzymes	0.45
O=C(Nc1ccccc1)c1cc(Br)cc(Br)c1 [Compound 26, 3,5-Dibromo-N-phenylbenzamide]	> 100	> 100	> 100	> 100	> 100	> 63.1	> 63											
COc1ccccc1C(=O)Nc1ccccc1 [Compound 44, 2-Methoxy-N-phenylbenzamide]	> 100	> 100	> 100	> 100	> 100	> 63.1	> 63											
O=C(Nc1ccc(Sc2nc3ccccc3s2)cc1)c1cc(Br)cc(Br)c1O [Compound 5, N-(4-(Benzo[d]thiazol-2-ylthio)phenyl)-3,5-dibromo-2-hydroxybenzamide]								> 100	> 100		0.525	0.44	0.437	0.92 ± 0.21		0.52	inhibit native MDH	0.44
O=C(Nc1ccc(Sc2nc3ccccc3s2)cc1)c1ccccc1 [Compound 22, N-(4-(Benzo[d]thiazol-2-ylthio)phenyl)benzamide]	> 100	> 100	> 100	> 100	> 100	> 63.1	> 63											
